Article PMC12136037, “Type II kinase inhibitors that target Parkinson’s disease–associated LRRK2” (Science Advances, 2025)

How the values were obtained:
Test in all cases: DSF 100 kinase selectivity screen;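 note: compound tested at 20 µM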
Format in all cases: binding
[1] = target: T1, ~100 representative kinases (Homo sapiens, UniProt O15164); details: Protein TIF1; DSF; average of three replicates
T1 construct: Recombinant protein kinase domains with a concentration of 2 μM
T1 sequence (O15164 1-1050): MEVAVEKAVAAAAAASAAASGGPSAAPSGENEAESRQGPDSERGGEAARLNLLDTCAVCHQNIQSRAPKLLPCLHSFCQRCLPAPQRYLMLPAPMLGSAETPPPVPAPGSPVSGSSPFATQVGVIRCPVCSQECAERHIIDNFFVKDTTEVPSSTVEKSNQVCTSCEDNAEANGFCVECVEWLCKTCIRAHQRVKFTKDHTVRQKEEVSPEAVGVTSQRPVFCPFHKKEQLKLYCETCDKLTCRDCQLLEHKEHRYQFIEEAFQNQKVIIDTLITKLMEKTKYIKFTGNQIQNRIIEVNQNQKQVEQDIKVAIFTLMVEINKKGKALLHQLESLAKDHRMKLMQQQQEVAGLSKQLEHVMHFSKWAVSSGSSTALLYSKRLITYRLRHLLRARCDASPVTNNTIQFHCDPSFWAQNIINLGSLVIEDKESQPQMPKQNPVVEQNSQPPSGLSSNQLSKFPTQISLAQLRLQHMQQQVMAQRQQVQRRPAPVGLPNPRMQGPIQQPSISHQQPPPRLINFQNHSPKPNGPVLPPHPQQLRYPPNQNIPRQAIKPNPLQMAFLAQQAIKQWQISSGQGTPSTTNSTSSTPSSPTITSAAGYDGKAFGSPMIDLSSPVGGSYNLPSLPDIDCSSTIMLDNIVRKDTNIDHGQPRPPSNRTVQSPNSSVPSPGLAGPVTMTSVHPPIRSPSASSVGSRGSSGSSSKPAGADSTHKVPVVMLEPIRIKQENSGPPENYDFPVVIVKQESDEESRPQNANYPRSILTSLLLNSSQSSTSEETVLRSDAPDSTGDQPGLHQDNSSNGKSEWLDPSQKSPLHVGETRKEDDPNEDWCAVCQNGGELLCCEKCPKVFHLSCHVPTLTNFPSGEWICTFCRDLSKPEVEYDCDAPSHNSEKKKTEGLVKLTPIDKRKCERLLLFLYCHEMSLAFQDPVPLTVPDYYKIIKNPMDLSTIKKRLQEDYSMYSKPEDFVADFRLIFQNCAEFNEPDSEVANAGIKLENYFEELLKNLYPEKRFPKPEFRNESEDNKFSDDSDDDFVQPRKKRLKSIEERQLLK
Outline: (§1)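 Each kinase domain, at 2 μM, is mixed with 20 μM test compound and SYPRO Orange in Hepes (20 mM, pH 7.5) with 500 mM NaCl. Temperature is then raised at 3°C/min and fluorescence-monitored unfolding yields the melting temperature change, ΔTm in degrees Celsius.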

[2] = target: T2, ~100 representative kinases (Homo sapiens, UniProt O75385); details: Protein ULK1; DSF; average of three replicates
T2 construct: Recombinant protein kinase domains with a concentration of 2 μM
T2 sequence (O75385 1-1050): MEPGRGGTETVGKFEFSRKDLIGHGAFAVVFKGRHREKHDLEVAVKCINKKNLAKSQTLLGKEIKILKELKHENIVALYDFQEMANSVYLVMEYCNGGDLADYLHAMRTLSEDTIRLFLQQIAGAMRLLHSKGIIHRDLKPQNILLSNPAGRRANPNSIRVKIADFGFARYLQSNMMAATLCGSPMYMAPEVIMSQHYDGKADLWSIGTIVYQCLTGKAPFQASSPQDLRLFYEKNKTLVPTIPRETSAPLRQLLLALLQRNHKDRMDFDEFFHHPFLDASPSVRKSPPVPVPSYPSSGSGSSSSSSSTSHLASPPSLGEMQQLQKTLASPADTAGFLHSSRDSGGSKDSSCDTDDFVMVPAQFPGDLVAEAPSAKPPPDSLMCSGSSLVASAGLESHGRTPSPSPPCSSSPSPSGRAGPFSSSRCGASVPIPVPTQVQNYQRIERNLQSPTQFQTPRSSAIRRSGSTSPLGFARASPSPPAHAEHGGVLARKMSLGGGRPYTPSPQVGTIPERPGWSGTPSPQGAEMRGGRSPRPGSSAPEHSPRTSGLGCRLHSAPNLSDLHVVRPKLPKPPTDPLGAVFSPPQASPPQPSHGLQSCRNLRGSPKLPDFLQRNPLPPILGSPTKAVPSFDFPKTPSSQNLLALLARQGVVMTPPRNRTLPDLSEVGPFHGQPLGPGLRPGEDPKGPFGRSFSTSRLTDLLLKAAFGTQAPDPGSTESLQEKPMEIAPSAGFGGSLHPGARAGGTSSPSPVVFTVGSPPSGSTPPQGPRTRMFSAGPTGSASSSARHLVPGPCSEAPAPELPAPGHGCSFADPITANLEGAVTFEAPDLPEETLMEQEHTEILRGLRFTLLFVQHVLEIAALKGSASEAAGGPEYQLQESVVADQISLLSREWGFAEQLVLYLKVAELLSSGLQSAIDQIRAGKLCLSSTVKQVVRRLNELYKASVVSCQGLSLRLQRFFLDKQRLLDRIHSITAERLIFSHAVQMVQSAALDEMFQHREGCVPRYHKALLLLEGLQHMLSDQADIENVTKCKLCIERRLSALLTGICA
Outline: as §1

[3] = target: T3, ~100 representative kinases (Homo sapiens, UniProt P22607); details: protein FGFR3; average of three replicates
T3 construct: Recombinant protein kinase domains with a concentration of 2 μM
Outline: as §1

[4] = target: T4, ~100 representative kinases (Homo sapiens, UniProt Q02750); details: protein MAP2K1; average of three replicates
T4 construct: Recombinant protein kinase domains with a concentration of 2 μM
Outline: as §1

T4 sequence (Q02750 whole entry, the tested form may be a part): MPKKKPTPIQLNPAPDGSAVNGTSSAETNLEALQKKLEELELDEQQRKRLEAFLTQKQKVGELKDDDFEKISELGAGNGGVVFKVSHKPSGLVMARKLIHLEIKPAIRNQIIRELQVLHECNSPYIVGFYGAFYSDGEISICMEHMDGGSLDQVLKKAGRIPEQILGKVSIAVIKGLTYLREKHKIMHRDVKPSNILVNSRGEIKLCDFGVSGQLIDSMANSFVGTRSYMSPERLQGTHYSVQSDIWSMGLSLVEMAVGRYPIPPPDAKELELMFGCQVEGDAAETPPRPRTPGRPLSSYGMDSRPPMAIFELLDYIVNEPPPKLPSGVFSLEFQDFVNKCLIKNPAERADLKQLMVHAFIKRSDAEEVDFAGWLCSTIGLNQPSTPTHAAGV
T3 sequence (P22607 23-806): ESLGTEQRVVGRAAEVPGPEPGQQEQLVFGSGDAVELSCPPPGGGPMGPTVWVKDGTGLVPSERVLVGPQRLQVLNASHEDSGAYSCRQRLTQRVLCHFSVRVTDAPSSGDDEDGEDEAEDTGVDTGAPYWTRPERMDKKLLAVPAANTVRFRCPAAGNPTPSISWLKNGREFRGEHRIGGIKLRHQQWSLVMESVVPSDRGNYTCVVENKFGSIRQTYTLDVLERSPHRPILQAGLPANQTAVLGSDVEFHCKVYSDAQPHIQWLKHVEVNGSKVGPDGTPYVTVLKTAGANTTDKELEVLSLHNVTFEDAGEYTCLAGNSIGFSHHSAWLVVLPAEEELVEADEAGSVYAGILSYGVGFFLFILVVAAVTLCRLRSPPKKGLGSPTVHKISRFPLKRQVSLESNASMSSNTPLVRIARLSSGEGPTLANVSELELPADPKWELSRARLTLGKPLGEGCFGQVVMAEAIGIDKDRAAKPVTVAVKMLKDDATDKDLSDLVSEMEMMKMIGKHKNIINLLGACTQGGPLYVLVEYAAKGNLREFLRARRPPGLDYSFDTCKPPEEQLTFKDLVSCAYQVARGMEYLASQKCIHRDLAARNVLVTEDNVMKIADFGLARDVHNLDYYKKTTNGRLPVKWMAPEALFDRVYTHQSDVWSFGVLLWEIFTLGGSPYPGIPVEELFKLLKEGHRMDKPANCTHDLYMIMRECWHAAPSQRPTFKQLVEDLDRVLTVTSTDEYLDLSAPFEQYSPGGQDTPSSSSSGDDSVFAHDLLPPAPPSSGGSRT

dTm [1]	dTm [2]	dTm [3]	dTm [4]	Compound
3.01 K	7.16 K	2.90 K	2.16 K	O=C(Nc1cccc(-c2c[nH]c3ncnc(N4CCOCC4)c23)c1)C1(C(=O)Nc2cc(Br)c(F)cc2F)CC1 [Compound 25]
4.20 K	6.71 K	2.07 K	2.13 K	O=C(Nc1cc(F)cc(Br)c1)C1(C(=O)Nc2cccc(-c3c[nH]c4ncnc(N5CCOCC5)c34)c2)CC1 [Compound 27]
5.42 K	9.16 K	4.54 K	2.23 K	CC(C)(C)c1cccc(NC(=O)C2(C(=O)Nc3cccc(-c4c[nH]c5ncnc(N6CCOCC6)c45)c3)CC2)c1 [Compound 22]
